Assay results: US11180462B2, “Microbiocidal oxadiazole derivatives” (SYNGENTA PARTICIPATIONS AG, priority 2015, dated 2021)

Columns and labels:
Phakopsora Pachyrhizi = assay: Fungicidal activity against Phakopsora pachyrhizi / soybean / leaf disc preventative (Asian soybean rust); assay type: in vivo; settings: foliar, 200 ppm in the applied formulation, soybean leaf disks, compared to untreated control leaf disks, read-out: disease control
Experimental: Leaf disks or leaf segments of various plant species are cut from plants grown in a greenhouse. The cut leaf disks or segments are placed in multiwell plates (24-well format) onto water agar. The leaf disks are sprayed with a test solution before (preventative) or after (curative) inoculation. Compounds to be tested are prepared as DMSO solutions (max. 10 mg/ml) which are diluted to the appropriate concentration with 0.025% Tween20 just before spraying. The inoculated leaf disks or segments are incubated under defined conditions (temperature, relative humidity, light, etc.) according to the respective test system. A single evaluation of disease level is carried out 3 to 14 days after inoculation, depending on the pathosystem. Percent disease control relative to the untreated check leaf disks or segments is then calculated.
Fungicidal Activity Against Phakopsora Pachyrhizi Soybean/Leaf Disc Preventative (Asian Soybean Rust)
Soybean leaf disks are placed on water agar in multiwell plates (24-well format) and sprayed with the formulated test compound diluted in water. One day after application leaf discs are inoculated by spraying a spore suspension on the lower leaf surface. After an incubation period in a climate cabinet of 24-36 hours in darkness at 20° C. and 75% rh leaf disc are kept at 20° C. with 12 h light/day and 75% rh. The activity of a compound is assessed as percent disease control compared to untreated when an appropriate level of disease damage appears in untreated check leaf disks (12 to 14 days after application).
The following compounds at 200 ppm in the applied formulation give at least 80% disease control in this test when compared to untreated control leaf disks under the same conditions, which show extensive disease development.

[1] = tested on: Puccinia recondita f. Sp. Tritici; assay: Fungicidal activity against Puccinia recondita f. sp. tritici / wheat / leaf disc preventative (brown rust); assay type: in vivo; settings: foliar, 200 ppm in the applied formulation, wheat leaf segments, preventative, compared to untreated control leaf disks, read-out: disease control
In short: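 200 ppm spray on wheat cv. Kanzler leaf segments; spore inoculation +1 day; 19° C., 75% rh, 12 h/12 h light cycle; single rating of % control vs untreated at 7 to 9 days.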

[2] = tested on: Glomerella lagenarium (Colletotrichum lagenarium); assay: Fungicidal activity against Glomerella lagenarium (Colletotrichum lagenarium) liquid culture / cucumber / preventative (anthracnose); assay type: cell-based; settings: Colletotrichum orbiculare; 20 ppm in the applied formulation; liquid culture (PDB), growth inhibition measured photometrically after 3 to 4 days; compared to untreated control; read-out: disease control
In short: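 Percent activity against the untreated check was derived from photometric growth measurements made 2 to 7 days after conidia in potato dextrose broth were combined with compound at 20 ppm. Cultures were kept dark at 24 °C and 96% humidity.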

CCC(C)C(=O)N(CCO)Cc1ccc(-c2noc(C(F)(F)F)n2)cc1 (stereo not drawn) [Compound 1.720, N-(2-hydroxyethyl)-2-methyl-N-[[4-[5-(trifluoromethyl)-1,2,4-oxadiazol-3-yl]phenyl]methyl]-butanamide]
≥ 80%: pest or weed control at 200 ppm (Phakopsora Pachyrhizi) | pest or weed control at 200 ppm [1] | inhibition of growth at 20 ppm [2]

C#CCN(Cc1ccc(-c2noc(C(F)(F)F)n2)cc1)C(=O)Cc1ccc(C#N)cc1 [Compound 1.193, 2-(4-cyanophenyl)-N-prop-2-ynyl-N-[[4-[5-(trifluoromethyl)-1,2,4-oxadiazol-3-yl]phenyl]methyl]-acetamide]
≥ 80%: pest or weed control at 200 ppm (Phakopsora Pachyrhizi) | pest or weed control at 200 ppm [1] | inhibition of growth at 20 ppm [2]

C=CCN(Cc1ccc(-c2noc(C(F)(F)F)n2)cc1)C(=O)C1CCCC1 [Compound 1.475, N-allyl-N-[[4-[5-(trifluoromethyl)-1,2,4-oxadiazol-3-yl]phenyl]methyl]-cyclopentane-carboxamide]
≥ 80%: pest or weed control at 200 ppm (Phakopsora Pachyrhizi) | pest or weed control at 200 ppm [1] | inhibition of growth at 20 ppm [2]

C#CCN(Cc1ccc(-c2noc(C(F)(F)F)n2)cc1)C(=O)C1CC1(Cl)Cl (stereo not drawn) [Compound 1.190, 2,2-dichloro-N-prop-2-ynyl-N-[[4-[5-(trifluoromethyl)-1,2,4-oxadiazol-3-yl]phenyl]methyl]-cyclopropane-carboxamide]
≥ 80%: pest or weed control at 200 ppm (Phakopsora Pachyrhizi) | pest or weed control at 200 ppm [1] | inhibition of growth at 20 ppm [2]

COCCN(Cc1ccc(-c2noc(C(F)(F)F)n2)cc1)C(=O)CC(C)(C)C [Compound 1.342, N-(2-methoxyethyl)-3,3-dimethyl-N-[[4-[5-(trifluoromethyl)-1,2,4-oxadiazol-3-yl]phenyl]methyl]-butanamide]
≥ 80%: pest or weed control at 200 ppm (Phakopsora Pachyrhizi) | pest or weed control at 200 ppm [1] | inhibition of growth at 20 ppm [2]

CCCC(=O)N(Cc1ccc(-c2noc(C(F)(F)F)n2)cc1)CC1CCCO1 (stereo not drawn) [Compound 1.416, N-(tetrahydrofuran-2-ylmethyl)-N-[[4-[5-(trifluoromethyl)-1,2,4-oxadiazol-3-yl]phenyl]methyl]-butanamide]
≥ 80%: pest or weed control at 200 ppm (Phakopsora Pachyrhizi) | pest or weed control at 200 ppm [1] | inhibition of growth at 20 ppm [2]

C#CCN(Cc1ccc(-c2noc(C(F)(F)F)n2)cc1)C(=O)C1CCCCC1 [Compound 1.158, N-prop-2-ynyl-N-[[4-[5-(trifluoromethyl)-1,2,4-oxadiazol-3-yl]phenyl]methyl]-cyclohexane-carboxamide]
≥ 80%: pest or weed control at 200 ppm (Phakopsora Pachyrhizi) | pest or weed control at 200 ppm [1] | inhibition of growth at 20 ppm [2]

CCON(Cc1ccc(-c2noc(C(F)(F)F)n2)cc1)C(=O)C1CCC1 [Compound 1.619, N-ethoxy-N-[[4-[5-(trifluoromethyl)-1,2,4-oxadiazol-3-yl]phenyl]methyl]-cyclobutane-carboxamide]
≥ 80%: pest or weed control at 200 ppm (Phakopsora Pachyrhizi) | pest or weed control at 200 ppm [1] | inhibition of growth at 20 ppm [2]

CC(C)(C)OC(=O)ON(Cc1ccc(-c2noc(C(F)(F)F)n2)cc1)C(=O)OC(C)(C)C [Compound 2.21, [tert-butoxycarbonyl-[[4-[5-(trifluoromethyl)-1,2,4-oxadiazol-3-yl]phenyl]methyl]-amino]tert-butyl carbonate]
≥ 80%: pest or weed control at 200 ppm (Phakopsora Pachyrhizi) | pest or weed control at 200 ppm [1] | inhibition of growth at 20 ppm [2]

N#CC1(C(=O)N(CCO)Cc2ccc(-c3noc(C(F)(F)F)n3)cc2)CC1 [Compound 1.729, 1-cyano-N-(2-hydroxyethyl)-N-[[4-[5-(trifluoromethyl)-1,2,4-oxadiazol-3-yl]phenyl]methyl]-cyclopropane-carboxamide]
≥ 80%: pest or weed control at 200 ppm (Phakopsora Pachyrhizi) | pest or weed control at 200 ppm [1] | inhibition of growth at 20 ppm [2]

COCCCC(=O)N(Cc1ccc(-c2noc(C(F)(F)F)n2)cc1)CC1CC1 [Compound 1.238, N-(cyclopropylmethyl)-4-methoxy-N-[[4-[5-(trifluoromethyl)-1,2,4-oxadiazol-3-yl]phenyl]methyl]-butanamide]
≥ 80%: pest or weed control at 200 ppm (Phakopsora Pachyrhizi) | pest or weed control at 200 ppm [1] | inhibition of growth at 20 ppm [2]

O=C(CC1CC1)OCCN(Cc1ccc(-c2noc(C(F)(F)F)n2)cc1)C(=O)CC1CC1 [Compound 1.737, 2-[(2-cyclopropylacetyl)-[[4-[5-(trifluoromethyl)-1,2,4-oxadiazol-3-yl]phenyl]methyl]-amino]ethyl 2-cyclopropylacetate]
≥ 80%: pest or weed control at 200 ppm (Phakopsora Pachyrhizi) | pest or weed control at 200 ppm [1] | inhibition of growth at 20 ppm [2]

O=C(C1CC1(F)F)N(CCO)Cc1ccc(-c2noc(C(F)(F)F)n2)cc1 (stereo not drawn) [Compound 1.708, 2,2-difluoro-N-(2-hydroxyethyl)-N-[[4-[5-(trifluoromethyl)-1,2,4-oxadiazol-3-yl]phenyl]methyl]-cyclopropane-carboxamide]
≥ 80%: pest or weed control at 200 ppm (Phakopsora Pachyrhizi) | pest or weed control at 200 ppm [1] | inhibition of growth at 20 ppm [2]

CC(=O)CC(C)C(=O)N(Cc1ccc(-c2noc(C(F)(F)F)n2)cc1)CC1CC1 (stereo not drawn) [Compound 1.209, N-(cyclopropylmethyl)-2-methyl-4-oxo-N-[[4-[5-(trifluoromethyl)-1,2,4-oxadiazol-3-yl]phenyl)methyl]-pentanamide]
≥ 80%: pest or weed control at 200 ppm (Phakopsora Pachyrhizi) | pest or weed control at 200 ppm [1] | inhibition of growth at 20 ppm [2]

CC(C)CC(=O)N(Cc1ccc(-c2noc(C(F)(F)F)n2)cc1)CC1CC1 [Compound 1.218, N-(cyclopropylmethyl)-3-methyl-N-[[4-[5-(trifluoromethyl)-1,2,4-oxadiazol-3-yl]phenyl]methyl]-butanamide]
≥ 80%: pest or weed control at 200 ppm (Phakopsora Pachyrhizi) | pest or weed control at 200 ppm [1] | inhibition of growth at 20 ppm [2]

O=C(CC(F)(F)F)N(CCO)Cc1ccc(-c2noc(C(F)(F)F)n2)cc1 [Compound 1.733, 3,3,3-trifluoro-N-(2-hydroxyethyl)-N-[[4-[5-(trifluoromethyl)-1,2,4-oxadiazol-3-yl]phenyl]methyl]-propanamide]
≥ 80%: pest or weed control at 200 ppm (Phakopsora Pachyrhizi) | pest or weed control at 200 ppm [1] | inhibition of growth at 20 ppm [2]

CCON(Cc1ccc(-c2noc(C(F)(F)F)n2)cc1)C(=O)CC#N [Compound 1.627, 2-cyano-N-ethoxy-N-[[4-[5-(trifluoromethyl)-1,2,4-oxadiazol-3-yl)phenyl]methyl]-acetamide]
≥ 80%: pest or weed control at 200 ppm (Phakopsora Pachyrhizi) | pest or weed control at 200 ppm [1] | inhibition of growth at 20 ppm [2]

O=C(C1CCC1)N(Cc1ccc(-c2noc(C(F)(F)F)n2)cc1)CC1CC1 [Compound 1.221, N-(cyclopropylmethyl)-N-[[4-[5-(trifluoromethyl)-1,2,4-oxadiazol-3-yl]phenyl]methyl]-cyctobutane-carboxamide]
≥ 80%: pest or weed control at 200 ppm (Phakopsora Pachyrhizi) | pest or weed control at 200 ppm [1] | inhibition of growth at 20 ppm [2]

O=C(c1ccccc1Cl)N(O)Cc1ccc(-c2noc(C(F)(F)F)n2)cc1 [Compound 1.754, 2-chloro-N-hydroxy-N-[[4-[5-(trifluoromethyl)-1,2,4-oxadiazol-3-yl]phenyl]methyl]-benzamide]
≥ 80%: pest or weed control at 200 ppm (Phakopsora Pachyrhizi) | pest or weed control at 200 ppm [1] | inhibition of growth at 20 ppm [2]

COCC(=O)OCCN(Cc1ccc(-c2noc(C(F)(F)F)n2)cc1)C(=O)COC [Compound 1.716, 2-[(2-methoxy-acetyl)-[[4-[5-(trifluoromethyl)-1,2,4-oxadiazol-3-yl]phenyl]methyl]-amino]ethyl 2-methoxyacetate]
≥ 80%: pest or weed control at 200 ppm (Phakopsora Pachyrhizi) | pest or weed control at 200 ppm [1] | inhibition of growth at 20 ppm [2]

CC=CCC(=O)N(Cc1ccc(-c2noc(C(F)(F)F)n2)cc1)CC1CC1 [Compound 1.222, N-(cyclopropylmethyl)-N-[[4-[5-(trifluoromethyl)-1,2,4-oxadiazol-3-yl]phenyl]methyl]-pent-3-enamide]
≥ 80%: pest or weed control at 200 ppm (Phakopsora Pachyrhizi) | pest or weed control at 200 ppm [1] | inhibition of growth at 20 ppm [2]
